# Paper PMC6627486, “Ipomoeassin F Binds Sec61α to Inhibit Protein Translocation” (Journal of the American Chemical Society, 2019)
# Tests used:
# HCT-116 cells = experiment: Metabolic labelling of nascent proteins in HCT116 cells; format: cell-based, human
# Protocol: Metabolic Labelling Assays in HCT116 Cells
# HCT116 cells were counted using an automated cell counter (BioRad TC20) immediately prior to each experiment. 3 ml of HCT116 cells at a density of 0.166x10^6 cells/mL were seeded to 6-well plates (0.5x10^6 cells/well) and then incubated at 37 °C and 5% CO 2 for 24 h. The compounds were dissolved in DMSO to make drug stocks (10 mM). The stock solutions were diluted with DMEM high glucose culture medium lacking methionine and cysteine to make a fresh working solution immediately prior to each test. Cells were washed twice and 1ml of fresh DMEM lacking methionine and cysteine was added to each well.
# Subsequently, the cells were treated with 250 µl of compound solutions in a total volume of 1 ,250 µl/well.
# The plate was then incubated at 37 °C and 5% CO 2 for 30 min before 100 µCi 35S-labelled methionine/cysteine was added (Expre35s35s protein labelling mix). Plates were incubated for a further 30 min, then media collected and cells harvested by scraping after four washes in ice-cold PBS. Total protein was acquired by RIPA extraction from the cell pellet, cytoplasmic fraction was acquired by partial permeabilization of the outer cell membranes with 0.15% Digitonin followed by centrifugation, secreted proteins were acquired by TCA precipitation of the media. […]
# [1] = tested on: secNLuc-ATZ secretion in U2-OS cells; experiment: U2-OS secNLuc-ATZ secretion assay; format: cell-based; conditions: Homo sapiens, U2OS, 24 h, read-out: secNLuc-ATZ secretion inhibition EC50
# Protocol: The secNLuc-ATZ assay has been described elsewhere.18 Briefly, U2-OS cells stably expressing secNLuc-ATZ were cultured in McCoy’s 5A supplemented with 10% bovine growth serum (Hyclone SH30540.03), 50 units/mL penicillin, and 50 µg/mL streptomycin and plated into 1536-well black, clear-bottom treatment plates (Aurora Microplates #ABI121000A) at 1200 cells/well in 5 µL volume using a Multidrop Combi dispenser (ThermoFisher). Cells were returned to 37 °C for 1 h to adhere and compound or vehicle control was added to wells using a 1536-well pin-tool transfer device (Wako Automation, San Diego). Cells were incubated for 24 h and secNLuc-ATZ-containing media was transferred using an ATS-100 acoustic dispenser (EDC Biosystems, Fremont, CA) from the treatment plate to a white, solid-bottom 1536-well recipient plate (Greiner Bio One #789175-F) containing 3 µL/well of 1X PBS. […]
# Cells were incubated at 37 °C for 24 h and secreted luciferase was detected by adding 1 µL of coelenterazine substrate to each well using a BioRAPTR FRD workstation. […]
# Luminescence was measured using a ViewLux microplate imager equipped with clear filters.
# For cell viability assays, cells were cultured, plated, and treated with test compounds as outlined for the secretion assays. 48 h after treatment, viability was assessed using a CellTiter-Glo assay by adding 3
# MDA-MB-231 cells = experiment: Live cell imaging with fluorescent probe 12; format: cell-based, human; conditions: 30 min preincubation, 100-fold excess competitor
# Protocol: MDA-MB-231 cells were seeded on fibronectin-coated coverslips at 70% confluency in a 48-well plate and cultured at 37 °C and 5% CO2. After 24 h, culture medium was replaced with fresh medium containing a 20 µM competitor or an equal volume of DMSO vehicle for 30 min at 37 °C and 5% CO2, followed by addition of 0.2 µM (final concentration) fluorescent probe 12. After 1 h incubation at 37 °C and 5% CO2, the coverslips were mounted onto a glass slide with a mounting medium with or without 0.5 µg/ml DAPI.
# The fluorescent images were acquired with a confocal microscope (Leica TCS SP5) using 405 nm excitation and 562 nm excitation. For the ER co-localization studies, 1 uM ER-Tracker™ Blue-White DPX was added to the medium after 1 h incubation with probe 12. After 5 min incubation, the coverslips were mounted onto a glass slide and the images were acquired as described above.
# CT7 photo-affinity labeling and click chemistry were done as previously described.14 Briefly, SRMs (sheep rough microsomes, isolated as described in reference15) containing 100 nM Sec61 were treated with 10 µM ipomoeassin F/mycolactone or 1% DMSO for 30 min at 0°C, followed by incubation with 100 nM CT7 for 10 min RT. Samples were then photolyzed for 10 min and crosslinked proteins were detected by click chemistry, SDS-PAGE, and in-gel fluorescent scanning (Typhoon Trio, GE Healthcare). […]
smiles,measurement,setting,value
C/C=C(\C)C(=O)O[C@@H]1[C@@H](O)[C@@H]2O[C@H]3[C@H](O[C@@H](CCCCC)CCCCCCC(=O)CCC(=O)OC[C@@H](O2)[C@H]1OC(=O)/C=C/c1ccccc1)O[C@H](C)[C@H](OC(C)=O)[C@@H]3O [ipomoeassin F],inhibition of production of secreted proteins,"HCT-116 cells; HCT-116, 100 nM, 35S labelling",strong inhibition
same,nascent protein biogenesis in total cellular lysates and cytosolic fractions,"HCT-116 cells; HCT-116, 35S labelling",lack of inhibition
same,EC50,[1],~5 nM
same,effect of competitor on fluorescence signal of 12,MDA-MB-231 cells,almost completely abolished
